Reference: patent US20160158262A1, “METHODS OF TREATING IRRITABLE BOWEL SYNDROME” (CEDARS-SINAI MEDICAL CENTER, priority 2013, published 2016)

Columns and labels:
methane = conditions: retrospective study; cited from earlier work
[1] = test system: non-constipated IBS subjects; conditions: cited from earlier work
breath methane = experiment: Fasting breath sample for methane after therapy in the same trial; assay type: in vivo, human
Method: (§1) Following completion of therapy, subjects were asked to continue with the weekly symptom questionnaires for an additional 4 weeks. During the final week of follow up, subjects were asked to repeat the 7-day stool diary followed by the final weekly questionnaire. Finally, subjects were asked to repeat a single fasting breath sample to examine for the presence of methane.
Subjects were asked to fast for 12 hours prior to a breath sample being obtained. Breath samples were collected via a Quintron dual bag collecting system (Quintron Instrument Company, Milwaukee, Wis.). The sampled gas was analyzed using a BreathTracker SC (Quintron Instrument Company, Milwaukee, Wis.). Output was reported as methane in parts per million (ppm) after correction for alveolar sample quality using breath CO2 concentration.
The primary outcome measure of this study was constipation severity as assessed on a VAS score from the first week following completion of the treatment phase. Secondary outcome measures included the severity of constipation, abdominal pain, urgency, bloating and straining over the entire study period. In addition, the eradication of methane was evaluated as a determinant of improvement at 4 weeks post therapy.

[2] = in vivo
Method: All subjects with a diagnosis of C-IBS presented for a fasting breath test after a 12 hour fast. Only subjects with methane level of >3 ppm on a single breath sample were enrolled. Subjects then completed a baseline study questionnaire and a baseline audiogram. […] Subjects were then asked to complete a daily stool diary for two weeks with weekly questionnaires for overall symptom severity. Subjects were eligible for randomization only if they were confirmed to have <3 CSBMs per week during stool diary.
The randomization scheme was set in blocks of 4 and each site received batches of drug in multiples of 4 to balance each study site into blocks. The allocation was concealed. The randomization was done by the drug company with a tracking list provided to the study site pharmacy in a concealed envelope. The pharmacy, investigators and patients were blinded. During the 14 days of treatment, subjects completed weekly symptom questionnaires (2 questionnaires over 2 weeks).
Baseline qualitative data and side effect rates were compared by Fisher's Exact Test. Quantitative baseline data was normal so were compared by t-Test. Data were expressed as mean±SD. The primary endpoint was also normally distributed and compared by t-test.

[3] = test system: C-IBS subjects with methane; experiment: Randomized double-blind trial in methane-positive C-IBS subjects: weekly symptom severity questionnaires (VAS 0-100); assay type: in vivo, human
Method: Consecutive C-IBS subjects (18-65 yrs of age) (Rome III criteria) were recruited after applying exclusion criteria. All subjects presented for a lactulose breath test after a 12 hour fast. Only subjects with methane level >3 ppm on at least 1 breath sample were enrolled. Subjects then completed a stool diary, questionnaire (100 point VAS scale for bloating, abdominal pain, constipation, diarrhea and straining) and 2 week run in phase. […] Questionnaires were repeated weekly during treatment and for 4 weeks following completion of treatment. On the last week of follow up, the stool diary was repeated.
Consecutive patients (18-65 yrs of age) who fulfilled the Rome II criteria for C-IBS^2 were recruited. Patients were included if they reported <3 complete and spontaneous bowel movements (CSBMs) per week and had breath methane >3 ppm. […] Subjects were also excluded if they had taken an antibiotic or probiotic in the previous 30 days or were currently taking narcotics, proton pump inhibitors, tricyclic antidepressants, or medications known to alter intestinal motility. All subjects provided informed written consent and the study was approved by the institutional review board of all three study sites. Subjects who completed the study received a stipend. The study was registered with clinicaltrials.gov (NCT00945334).
The allocation was concealed. […] The pharmacy, investigators and patients were blinded.
as §1
The baseline study questionnaire included subject demographics as well as symptom severity information. Follow-up questionnaires included a repeat evaluation of symptom severity. The following were assessed: abdominal pain, constipation, bloating, urgency, incomplete evacuation, straining and diarrhea. Severity was rated using a visual analog scale (VAS) from 0-100 mm (with 0=no symptom and 100=severe symptoms).
The primary outcome measure of this study was constipation severity as assessed on a VAS score from the first week following completion of the treatment phase. […] In addition, the eradication of methane was evaluated as a determinant of improvement at 4 weeks post therapy.
Data were expressed as mean±SD.
To examine the effect of each group over the duration of the study, a mixed longitudinal model was used. […] The models were analyzed with a single covariate (baseline diarrhea, constipation, abdominal pain, or bloating severity score). […]

[4] = test system: non-selected population of IBS; conditions: cited from earlier work
[5] = by week 2 of treatment, 100 point VAS, mean±SD

| Compound | benefit of single antibiotic (methane) | duration of benefits following cessation of therapy ([1]; after 14 days of rifaximin therapy, global symptom rating, bloating, stool consistency, abdominal pain) | efficacy versus placebo in the treatment of IBS ([1]; multiple published randomized trials) | reduction in methane from baseline (median drop) (breath methane; fasting breath sample, final visit vs baseline) | subjects with methane levels ≦3 ppm following treatment (breath methane; final visit, of 15 subjects (rifaximin plus neomycin), out of 16 subjects (neomycin)) | Side effect: Abdominal pain [2] | Side effect: Bloating and distension [2] | Side effect: Constipation [2] | Side effect: Diarrhea [2] | Side effect: Nausea [2] | Side effect: Urgency [2] | bloating severity (VAS) [3, 5] | constipation VAS score [3, 5] | difference in constipation severity between subjects with and without methane ≦3 ppm ([3]; final visit) | VAS score for constipation (primary endpoint) ([3]; one week after completion of 14 days of therapy, ITT, mean±SD) | improvement of IBS compared to placebo [4] | rate of normalizing the breath test [4] |
| --- | --- | --- | --- | --- | --- | --- | --- | --- | --- | --- | --- | --- | --- | --- | --- | --- | --- |
| CO[C@H]1/C=C/O[C@@]2(C)Oc3c(C)c(O)c4c(O)c(c5c(nc6cc(C)ccn65)c4c3C2=O)NC(=O)/C(C)=C\C=C\[C@H](C)[C@H](O)[C@@H](C)[C@@H](O)[C@@H](C)[C@H](OC(C)=O)[C@@H]1C [Rifaximin, rifaximin] | did not have a substantial benefit | 3 months | superiority over placebo | – | – | – | – | – | – | – | – | – | – | – | – | – | – |
| neomycin | did not have a substantial benefit | – | – | 7.5 ppm | 11 subjects | 6 (38) n(%) | 9 (56) n(%) | 2 (13) n(%) | 2 (13) n(%) | 10 (63) n(%) | 2 (13) n(%) | 65.1±25.9 | 57.9±25.0 | no significant difference | 61.2±24.1 | successful in improving IBS | poor rate |
